Results as given in patent US9840508B2, “N-acyl-(3-substituted)-(8-methyl)-5,6-dihydro-[1,2,4]triazolo[4,3-a] pyrazines as selective NK-3 receptor antagonists, pharmaceutical composition, methods for use in NK-3 receptor-mediated disorders” (EUROSCREEN SA, priority 2013, dated 2017).
Where two headings read alike, the source gives them in different places.

Key:
human NK-3 receptor [1] = molecular target: T1, human NK-3 receptor (Homo sapiens (Human), UniProt P29371); test: Aequorin functional assay with human NK-3 receptor (antagonist testing); type: cell-based; details: CHO cells expressing human NK-3 receptor; agonist NKA at EC80 (3 nM); read-out: Functional assay: Aequorin assay with human NK-3 receptor hNK-3 - AEQ (antagonist IC50)
Protocol: Aequorin Assay with Human NK-3 Receptor
Changes in intracellular calcium levels are a recognized indicator of G protein-coupled receptor activity. The efficacy of compounds of the invention to inhibit NKA-mediated NK-3 receptor activation was assessed by an in vitro Aequorin functional assay. Chinese Hamster Ovary recombinant cells expressing the human NK-3 receptor and a construct that encodes the photoproteinapoaequorin were used for this assay. In the presence of the cofactor coelenterazine, apoaequorin emits a measurable luminescence that is proportional to the amount of intracellular (cytoplasmic) free calcium.
The antagonist activity of compounds of the invention is measured following pre-incubation (3 minutes) of the compound (at various concentrations) with the cells, followed by addition of the reference agonist (NKA) at a final concentration equivalent to the EC80 (3 nM) and recording of emitted light (FDSS 6000 Hamamatsu) over the subsequent 90-second period. The intensity of the emitted light is integrated using the reader software. Compound antagonist activity is measured based on the concentration-dependent inhibition of the luminescence response to the addition of Neurokinin A.
The IC50 values shown in Table 2 indicate that compounds of the invention are potent NK-3 antagonist compounds.

human NK-3 receptor [2] = molecular target: T1, human NK-3 receptor; test: 3H-SB222200 binding competition assay with human NK-3 receptor
Protocol: The affinity of compounds of the invention for the human NK-3 receptor was determined by measuring the ability of compounds of the invention to competitively and reversibly displace a well-characterized NK-3 radioligand in a concentration-dependent manner.
^3H-SB222200 Binding Competition Assay with Human NK-3 Receptor
The ability of compounds of the invention to inhibit the binding of the NK-3 receptor selective antagonist ^3H-SB222200 was assessed by an in vitro radioligand binding assay. Membranes were prepared from Chinese hamster ovary recombinant cells stably expressing the human NK-3 receptor. The membranes were incubated with 5 nM ^3H-SB222200 (ARC) in a HEPES 25 mM/NaCl 0.1M/CaCl2 1 mM/MgCl2 5 mM/BSA 0.5%/Saponin 10 μg/ml buffer at pH 7.4 and various concentrations of compounds of the invention. The amount of ^3H-SB222200 bound to the receptor was determined after filtration by the quantification of membrane associated radioactivity using the TopCount-NXT reader (Packard).

human NK-1 receptor = human NK-1 receptor (Homo sapiens (Human), UniProt P25103); test: Selectivity binding assay, human NK-1 ([3H] substance P); details: CHO cell membranes; 2 nM [3H] substance P; read-out: hNK-1 (Ki)
Protocol: (§1) Selectivity of the compounds of the invention was determined over the other human NK receptors, namely NK-1 and NK-2 receptors.
The affinity of compounds of the invention for the NK-1 receptor was evaluated in CHO recombinant cells which express the human NK-1 receptor. Membrane suspensions were prepared from these cells. The following radioligand: [^3H] substance P (PerkinElmer Cat#NET111520) was used in this assay. Binding assays were performed in a 50 mM Tris/5 mM MnCl2/150 mM NaCl/0.1% BSA at pH 7.4. Binding assays consisted of 25 μl of membrane suspension (approximately 5 μg of protein/well in a 96 well plate), 50 μl of compound or reference ligand (Substance P) at increasing concentrations (diluted in assay buffer) and 2 nM [^3H] substance P. The plate was incubated 60 min at 25° C. in a water bath and then filtered over GF/C filters (Perkin Elmer, 6005174, presoaked in 0.5% PEI for 2 h at room temperature) with a Filtration unit (Perkin Elmer). The radioactivity retained on the filters was measured by using the TopCount-NXT reader (Packard). Competition curves were obtained for compounds of the invention and the concentrations of compounds which displaced 50% of bound radioligand (IC50) were determined and then apparent inhibition constant Ki values were calculated by the following equation: Ki=IC50/(1+[L]/KD) where [L] is the concentration of free radioligand and KD is its dissociation constant at the receptor, derived from saturation binding experiments (Cheng and Prusoff, 1973).

human NK-2 receptor = human NK-2 receptor (Homo sapiens (Human), UniProt P21452); test: Selectivity binding assay, human NK-2 ([125I]-Neurokinin A); details: CHO cell membranes; 0.1 nM [125I]-Neurokinin A; read-out: hNK-2 (Ki)
Protocol: as §1
The affinity of compounds of the invention for the NK-2 receptor was evaluated in CHO recombinant cells which express the human NK-2 receptor. Membrane suspensions were prepared from these cells. The following radioligand [^125I]-Neurokinin A (PerkinElmer Cat#NEX252) was used in this assay. Binding assays were performed in a 25 mM HEPES/1 mM CaCl2/5 mM MgCl2/0.5% BSA/10 μg/ml saponin, at pH 7.4. Binding assays consisted of 25 μl of membrane suspension (approximately 3.75 μg of protein/well in a 96 well plate), 50 μl of compound or reference ligand (Neurokinin A) at increasing concentrations (diluted in assay buffer) and 0.1 nM [^125I]-Neurokinin A. The plate was incubated 60 min at 25° C. in a water bath and then filtered over GF/C filters (Perkin Elmer, 6005174, presoaked in assay buffer without saponine for 2 h at room temperature) with a Filtration unit (Perkin Elmer). The radioactivity retained on the filters was measured by using the TopCount-NXT reader (Packard). Competition curves were obtained for compounds of the invention and the concentrations of compounds which displaced 50% of bound radioligand (IC50) were determined and then apparent inhibition constant Ki values were calculated by the following equation: Ki=IC50/(1+[L]/KD) where [L] is the concentration of free radioligand and KD is its dissociation constant at the receptor, derived from saturation binding experiments (Cheng and Prusoff, 1973).

plasma protein = test: Determination of plasma protein binding (rapid equilibrium dialysis); type: in vitro ADME; details: 4 hours at 37° C.
Source text: Determination of Plasma Protein Binding
The pharmacokinetic and pharmacodynamic properties of chemicals/drugs are largely a function of the reversible binding of chemicals to plasma or serum proteins. Generally, only the unbound or “free fraction” of a drug is available for diffusion or transport across cell membranes, and for interaction with a pharmacological/toxicological target. Consequently, the extent of the plasma protein binding (PPB) of a compound influences its action as well as its distribution and elimination.
The determination of plasma protein binding (PPB) of a compound is enabled by equilibrium dialysis, an accepted and standard method for reliable estimation of the non-bound drug fraction in plasma. RED (Rapid Equilibrium Dialysis) device insert is made of two side-by-side chambers separated by an O-ring-sealed vertical cylinder of dialysis membrane (MWCO˜8,000). Plasma containing drug (at 5 μM or blood concentrations otherwise corresponding to efficacious doses, if known) is added to one chamber while buffer is added to the second. After 4 hours incubation at 37° C. under shaking, an aliquot is removed from each chamber and analyzed by a LC-MS/MS procedure enables the determination of both free and bound drug.
The percentages provided in Table 4 represent for the compounds of the invention the bound drug fraction to the plasma protein. The “free fraction” may be calculated as 100%−% rPPB (i.e. the complementary percentage of that disclosed in Table 4, corresponding to the drug concentration that is unbound and therefore available to engage biological target and elicit pharmacological activity).

[3] = CHO cell membranes, 5 nM 3H-SB222200, Table 2, read-out: Competitive binding assay with human NK-3 receptor hNK-3 (Ki)
[4] = Table 3 (selectivity table), read-out: hNK-3 (Ki)

Sequence of human NK-1 receptor (P25103 whole entry): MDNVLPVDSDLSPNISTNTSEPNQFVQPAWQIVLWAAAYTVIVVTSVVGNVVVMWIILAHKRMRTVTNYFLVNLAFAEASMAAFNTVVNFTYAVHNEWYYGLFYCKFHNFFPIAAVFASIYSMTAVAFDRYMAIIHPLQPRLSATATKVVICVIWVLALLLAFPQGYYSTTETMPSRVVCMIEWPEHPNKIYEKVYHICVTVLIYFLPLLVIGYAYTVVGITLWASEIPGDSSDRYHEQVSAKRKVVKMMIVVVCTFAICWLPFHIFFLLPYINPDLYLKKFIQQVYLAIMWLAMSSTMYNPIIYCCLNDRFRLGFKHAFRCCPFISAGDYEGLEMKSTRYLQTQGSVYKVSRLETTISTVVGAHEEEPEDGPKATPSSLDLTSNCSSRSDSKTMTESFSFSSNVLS
Sequence of human NK-2 receptor (P21452 whole entry): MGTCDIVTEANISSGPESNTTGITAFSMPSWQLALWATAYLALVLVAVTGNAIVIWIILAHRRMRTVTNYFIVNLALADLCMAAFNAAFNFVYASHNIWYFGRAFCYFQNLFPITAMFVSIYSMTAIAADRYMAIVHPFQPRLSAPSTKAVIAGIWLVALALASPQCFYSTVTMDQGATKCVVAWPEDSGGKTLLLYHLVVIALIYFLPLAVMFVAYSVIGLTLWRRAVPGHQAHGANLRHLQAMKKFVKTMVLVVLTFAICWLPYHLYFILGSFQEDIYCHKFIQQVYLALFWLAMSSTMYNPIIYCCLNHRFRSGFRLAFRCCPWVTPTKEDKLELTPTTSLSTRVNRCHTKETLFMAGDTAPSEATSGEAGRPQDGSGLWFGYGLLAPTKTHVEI
T1 sequence (P29371 whole entry): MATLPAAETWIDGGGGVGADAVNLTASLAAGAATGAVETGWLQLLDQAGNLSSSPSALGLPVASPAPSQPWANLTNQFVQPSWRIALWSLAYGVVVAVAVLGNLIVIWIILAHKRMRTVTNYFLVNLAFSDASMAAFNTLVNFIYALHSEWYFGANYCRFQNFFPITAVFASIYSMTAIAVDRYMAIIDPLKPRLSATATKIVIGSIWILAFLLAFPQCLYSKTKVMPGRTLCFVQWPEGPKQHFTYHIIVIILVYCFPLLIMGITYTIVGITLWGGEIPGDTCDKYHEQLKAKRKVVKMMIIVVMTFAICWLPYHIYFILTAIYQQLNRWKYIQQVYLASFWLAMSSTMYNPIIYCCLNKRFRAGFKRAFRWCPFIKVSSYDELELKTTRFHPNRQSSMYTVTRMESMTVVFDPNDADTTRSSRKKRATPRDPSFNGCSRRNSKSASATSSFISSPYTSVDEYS

| Structure (SMILES) | IC50 (human NK-3 receptor [1]) [nM] | Ki (human NK-3 receptor [2]; [3]) [nM] | Ki (human NK-3 receptor [2]; [4]) [nM] | Ki (human NK-1 receptor) [nM] | Ki (human NK-2 receptor) [nM] | Exposure (% rPPB), bound drug fraction to the plasma protein (plasma protein) [%] |
| --- | --- | --- | --- | --- | --- | --- |
| Cc1ccc(-c2nnc3n2CCN(C(=O)c2ccc(F)c(F)c2F)[C@@H]3C)o1 [Compound 6, (R)-(8-methyl-3-(5-methylfuran-2-yl)-5,6-dihydro-[1,2,4]triazolo[4,3-a]pyrazin-7(8H)-yl)(2,3,4-trifluorophenyl)methanone] | 99 | 74 | 74 | > 30000 | > 30000 | 37 |
| Cc1ccc(-c2nnc3n2CCN(C(=O)c2ccc(Cl)c(Cl)c2)[C@@H]3C)o1 [Compound 11, (R)-(3,4-dichlorophenyl)(8-methyl-3-(5-methylfuran-2-yl)-5,6-dihydro-[1,2,4]triazolo[4,3-a]pyrazin-7(8H)-yl)methanone] | 36 | 27 | 27 | 6900 | 4200 | 76 |
| C[C@@H]1c2nnc(-c3csc(C(F)(F)F)n3)n2CCN1C(=O)c1cc(F)c(F)c(F)c1 [Compound 15, (R)-(8-methyl-3-(2-(trifluoromethyl)thiazol-4-yl)-5,6-dihydro-[1,2,4]triazolo[4,3-a]pyrazin-7(8H)-yl)(3,4,5-trifluorophenyl)methanone] | 24 | 13 | 13 | 24000 | 3500 | 60 |
| Cc1ccc(-c2nnc3n2CCN(C(=O)c2ccc(F)c(F)c2)[C@@H]3C)o1 [Compound 5, (R)-(3,4-difluorophenyl)(8-methyl-3-(5-methylfuran-2-yl)-5,6-dihydro-[1,2,4]triazolo[4,3-a]pyrazin-7(8H)-yl)methanone] | 52 | 42 | 42 | > 30000 | 31000 | 27 |
| C[C@@H]1c2nnc(-c3csc(C(F)(F)F)n3)n2CCN1C(=O)c1ccc(F)c(F)c1F [Compound 14, (R)-(8-methyl-3-(2-(trifluoromethyl)thiazol-4-yl)-5,6-dihydro-[1,2,4]triazolo[4,3-a]pyrazin-7(8H)-yl)(2,3,4-trifluorophenyl)methanone] | 59 | 40 | 40 | 28000 | 15000 | 69 |
| Cc1ccc(-c2nnc3n2CCN(C(=O)c2ccc(F)c(Cl)c2)[C@@H]3C)o1 [Compound 8, (R)-(3-chloro-4-fluorophenyl)(8-methyl-3-(5-methylfuran-2-yl)-5,6-dihydro-[1,2,4]triazolo[4,3-a]pyrazin-7(8H)-yl)methanone] | 62 | 44 | 44 | 18000 | 9100 | 47 |
| Cc1ccc(-c2nnc3n2CCN(C(=O)c2ccc(Cl)cc2)[C@@H]3C)o1 [Compound 10, (R)-(4-chlorophenyl)(8-methyl-3-(5-methylfuran-2-yl)-5,6-dihydro-[1,2,4]triazolo[4,3-a]pyrazin-7(8H)-yl)methanone] | 74 | 36 | 36 | 25000 | 23000 | 56 |

Next, values leading:

| IC50 (human NK-3 receptor [1]) [nM] | Ki (human NK-3 receptor [2]; [3]) [nM] | Ki (human NK-3 receptor [2]; [4]) [nM] | Ki (human NK-1 receptor) [nM] | Ki (human NK-2 receptor) [nM] | Exposure (% rPPB), bound drug fraction to the plasma protein (plasma protein) [%] | Structure (SMILES) |
| --- | --- | --- | --- | --- | --- | --- |
| 33 | 29 | 29 | 19000 | 4700 | 67 | C[C@@H]1c2nnc(-c3csc(C(F)(F)F)n3)n2CCN1C(=O)c1cc(F)c(F)c(F)c1F [Compound 12, (R)-(8-methyl-3-(2-(trifluoromethyl)thiazol-4-yl)-5,6-dihydro-[1,2,4]triazolo[4,3-a]pyrazin-7(8H)-yl)(2,3,4,5-tetrafluorophenyl)methanone] |
| 53 | 38 | 38 | 13000 | 14000 | 68 | Cc1ccc(-c2nnc3n2CCN(C(=O)c2ccc(Cl)c(F)c2)[C@@H]3C)o1 [Compound 9, (R)-(4-chloro-3-fluorophenyl)(8-methyl-3-(5-methylfuran-2-yl)-5,6-dihydro-[1,2,4]triazolo[4,3-a]pyrazin-7(8H)-yl)methanone] |
| 37 | 22 | 22 | 12000 | 5200 | 84 | C[C@@H]1c2nnc(-c3csc(C(F)(F)F)n3)n2CCN1C(=O)c1ccc(Cl)c(F)c1 [Compound 17, (R)-(4-chloro-3-fluorophenyl)(8-methyl-3-(2-(trifluoromethyl)thiazol-4-yl)-5,6-dihydro-[1,2,4]triazolo[4,3-a]pyrazin-7(8H)-yl)methanone] |
| 72 | 52 | 52 | > 30000 | 30000 | 30 | Cc1ccc(-c2nnc3n2CCN(C(=O)c2cc(F)c(F)c(F)c2F)[C@@H]3C)o1 [Compound 4, (R)-(8-methyl-3-(5-methylfuran-2-yl)-5,6-dihydro-[1,2,4]triazolo[4,3-a]pyrazin-7(8H)-yl)(2,3,4,5-tetrafluorophenyl)methanone] |
